In patent publication US11549123B2, “Plant EPSP synthases and methods of use” (PIONEER HI-BRED INTERNATIONAL, INC., priority 2015, dated 2023):
Changes are numbered by the printed parent chain.

Columns and labels:
[1] = target: T1, Zea mays EPSPS, native, SEQ ID NO:2 (Zea mays, UniProt O24566); assay: Substrate saturation analysis with glyphosate (Example 8, global fit to competitive inhibition), native maize; format: biochemical
T1 construct: E. coli BL21(DE3), Ni-NTA purified
T1 sequence (O24566 with tags, fused parts or gaps): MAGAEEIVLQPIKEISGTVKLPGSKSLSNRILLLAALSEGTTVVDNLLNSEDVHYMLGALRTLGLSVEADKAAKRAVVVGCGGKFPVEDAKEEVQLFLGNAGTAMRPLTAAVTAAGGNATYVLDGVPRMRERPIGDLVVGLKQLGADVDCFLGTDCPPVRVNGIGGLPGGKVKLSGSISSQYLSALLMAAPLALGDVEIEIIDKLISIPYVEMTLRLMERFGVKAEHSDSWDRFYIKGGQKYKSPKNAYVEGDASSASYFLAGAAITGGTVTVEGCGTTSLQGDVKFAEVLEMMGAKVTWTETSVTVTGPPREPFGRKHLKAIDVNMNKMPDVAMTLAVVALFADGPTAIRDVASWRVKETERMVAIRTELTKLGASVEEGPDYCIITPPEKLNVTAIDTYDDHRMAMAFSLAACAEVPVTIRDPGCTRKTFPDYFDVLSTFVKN
Description: Generally, (kcat/KM)*KI is obtained by performing substrate saturation analysis in the absence and presence of inhibitor. However, that analysis takes longer. […] To validate the method, (kcat/KM)*KI was quantified using both methods—traditional (saturation) and the instant method (rapid), for variants of maize 5-enolpyruvylshikimate-3-phosphate synthase (EPSPS) and its competitive inhibitor, glyphosate.
The amino acid sequence of mature Zea mays EPSPS was obtained from GenBank entry CAA44974.1 (SEQ ID NO:2). A nucleotide sequence was created to add an N-terminal methionine and to optimize codon usage for expression in E. coli. The synthesized gene was cloned into an expression vector that provides a T7 promoter driving expression of the protein and a 10× N-terminal histidine tag. Variants selected for this study include native maize EPSPS and variants generated by a gene shuffling cascade described herein. The proteins were expressed in E. coli BL21(DE3) and purified by Ni-NTA resin (Qiagen). Protein concentration was determined by absorbance at 280 nm using an extinction coefficient of 0.676 OD/mg/m L. The proteins were normalized to 0.5 mg/mL for assay.
EPSPS activity was determined by quantifying the phosphate generated by the reaction. Release of phosphate was coupled to reaction with MESG, catalyzed by purine-nucleoside phosphorylase, using standard methods. The absorbance change that occurs was monitored continuously at 360 nm, where the extinction is 11,200 M-1 cm-1, with a Spectramax plate reader (Molecular Devices). […] The enzyme concentration was adjusted so as to generate sufficient signal without exceeding the limit for linear initial reaction rates. The same procedure was repeated with two or three concentrations of glyphosate and the data were processed by non-linear regression analysis with GraphPad Prism (graphpad.com) and globally fitted to the Michaelis-Menten equation for competitive inhibition.
To validate that the rapid method yields an accurate estimation of (kcat/KM)*KI, the results were compared with those obtained by full substrate saturation analysis. […]

[2] = target: T2, Zea mays EPSPS variant P107L (Zea mays, UniProt O24566, P106L); assay: EPSPS substrate saturation kinetics, P107L
T2 sequence (O24566 with tags, fused parts or gaps P106L): T1 sequence (O24566 with tags, fused parts or gaps) with P107L
Description: EPSPS activity was determined by quantifying the phosphate generated from the EPSPS reaction. Release of inorganic phosphate was coupled to reaction with 2-amino-6-mercapto-7-methylpurine ribonucleoside, catalyzed by purine-nucleoside phosphorylase (M R Webb, Proc. Natl. Acad. Sci. 89:4884-4887, 1992). The absorbance change that occurs was monitored at 360 nm, where the extinction is 11,200 M^−1 cm^−1, with a Spectramax plate reader (Molecular Devices). To determine kinetic parameters, the varied substrate was present at seven concentrations (the eighth being the blank, containing no substrate) ranging from 4 to 400 uM and the unvaried substrate present at saturation. Six microliters of 50-fold concentrated stock solutions of the varied substrate were placed in the wells of the 96-well assay plate and reactions were started with the addition of a mixture containing 25 mM Hepes, pH 7, 100 mM KCl, 0.3 mM 2-amino-6-mercapto-7-methylpurine ribonucleosde, 1 uM (1 unit/ml) purine-nucleoside phosphorylase (Sigma N8264) and 200 uM of the non-varied substrate. Reactions were monitored with a Spectramax plate reader. The Michaelis-Menten kinetics protocol of the Spectramax software was customized for the substrate concentrations used. The software returns values of KM and Vmax using the Lineweaver-Burke transformation of the Michaelis-Menten equation. To determine kcat, Vmax (uM/min) was divided by the enzyme concentration (uM). […] KI was then calculated from the following form of the Michaelis-Menten equation for competitive inhibition: KI=KM[I]/(KM app−KM) KM approximates the dissociation constant of the enzyme-substrate complex while kcat is the rate of conversion of substrate to product when the substrate concentration is saturating. kcat/KM is a widely accepted parameter for catalytic efficiency when substrate concentration is low (˜KM). […] The parameter kcat/KM×KI is used to quantify both catalytic efficiency and insensitivity and thus the overall fitness of the enzyme.

[3] = substrate saturation, Zm native

| Compound | kcat [1, 3] [s⁻¹] | kcat/KM ([2]; PEP) [min^−1uM^−1] | kcat ([2]; PEP varied) [s⁻¹] | Ki [1] [µM] | (kcat/KM)*KI [1, 3] | Ki ([2]; KI (glyphosate), competitive with PEP) [µM] | Ki ([2]; Ki, substrate saturation, Zm-P107L) [µM] | (kcat/KM)*KI ([2]; PEP as substrate, glyphosate as inhibitor) | (kcat/KM)*KI ([2]; substrate saturation, Zm-P107L) |
| --- | --- | --- | --- | --- | --- | --- | --- | --- | --- |
| C=C(OP(=O)(O)O)C(=O)O [PEP, phosphoenolpyruvate] | 17.27 | 22.1 | 24.2 |  |  |  |  |  |  |
| O=C(O)CNCP(=O)(O)O [glyphosate, N-phosphonomethylglycine] |  |  |  | 0.13 | 12 | 3.6 | 3.05 | 79 | 70 |
